In publication PMC10649913 (Journal for Immunotherapy of Cancer, 2023):

What was measured:
[1] = cited from earlier work
AhR = conditions: cited from earlier work
[2] = tested on: human T cells cocultured with moDCs; assay: Human mixed lymphocyte reaction; format: cell-based; conditions: LPS and IFN-γ-matured moDCs, 3 days, 1 nM–1 µM
[3] = tested on: coculture of H1299 NSCLC cells, primary human PBMCs, and primary human fibroblasts; assay: BioMAP Oncology Panel; format: cell-based; conditions: 0.37, 1.1, or 3.3 µM, 48 hours

For `Cc1ccccc1N=Nc1ccc(NC(=O)c2ccnn2C)c(C)c1` [CH-223191], the AhR-independent activities [1] is listed as “AhR-independent proproliferative activities”.
In the case of `CC(C)n1cnc2c(NCCc3ccc(O)cc3)nc(-c3csc4ccccc34)nc21` [SR1], the Mouse cross-reactivity (AhR) is listed as “not mouse cross-reactive”.
For `NS(=O)(=O)NCCNc1nonc1C(=NO)Nc1ccc(F)c(Br)c1` [epacadostat], the “IL-2 production from T cells (MLR)” value [2] was “no effect” and the “Cytokine production (IFN-γ, IL-17, IL-2, IL-6, TNF-α)” value [3] was “predominantly anti-inflammatory responses with decreases in IFN-γ, IL-2, IL-6, and IL-17”.
